{
  "source": "patent US5294611A",
  "about": "“Angiotensin II receptor blocking 2,3,6 substituted quinazolinones” (American Cyanamid Company, priority 1993, dated 1994)",
  "tested_on": "Angiotensin II (AII) vasopressor response",
  "assay": "AII Challenge: antagonism of angiotensin II vasopressor response in conscious spontaneously hypertensive rats",
  "assay_type": "in vivo, rat (male okamoto-Aoki SHR)",
  "details": "for inhibition in vivo at 10 mg/kg / inhibition in vivo at 5 mg/kg: Rattus norvegicus; for inhibition in vivo at 10 mg/kg: iv; for inhibition in vivo at 10 mg/kg / inhibition in vivo at 5 mg/kg / Average Change: SHR n=2; for inhibition in vivo at 5 mg/kg: po, read-out: Inhibition; for Change: single SHR",
  "source_text": "Conscious Male okamoto-Aoki SHR, 16-20 weeks old, weighing approximately 330 g are purchased from Charles River Labs (Wilmington, Mass.). Conscious rats are restrained in a supine position with elastic tape. The area at the base of the tail is locally anesthetized by subcutaneous infiltration with 2% procaine. […] The cannula is secured, heparinized (1,000 I.U./ml), sealed and the wound is closed. The animals are placed in plastic restraining cages in an upright position. The cannula is attached to a Statham P23Db pressure transducer, and pulsatile blood pressure is recorded to 10-15 minutes with a Gould Brush recorder. […] Angiotensin II (human sequence, Sigma Chem. Co., St. Louis, Mo.) of 0.05 and 0.1 ug/kg i.v. is injected into all rats (predosing response). Then a test compound, vehicle or a known angiotensin II antagonist is administered i.v., i.p. or orally to each set of rats. […] The vasopressor response of angiotensin II is measured for the increase in systolic blood pressure in mmHg.",
  "key": {"[1]": {"details": "5 mg/kg P.O., AII 0.05 mcg/kg IV, 90 min post dose"}, "[2]": {"details": "10 mg/kg I.V., AII 0.05 mcg/kg IV, 30 min post dose"}, "[3]": {"details": "10 mg/kg I.V., AII 0.05 mcg/kg IV, 90 min post dose"}, "[4]": {"details": "10 mg/kg I.V., AII 0.1 mcg/kg IV, 180 min post dose"}, "[5]": {"details": "10 mg/kg I.V., AII dose not given, 120 min post dose"}},
  "note": "Where two headings read alike, the source gives them in different places.",
  "data": [
    {"smiles": "CCCCc1nc2ccc([C@@H]3[C@H]4C(=O)CCC[C@H]4ON3C)cc2c(=O)n1Cc1ccc(-c2ccccc2-c2nnn[nH]2)cc1", "note": "(relative stereo) [Example 49]", "values": [
      {"measurement": "inhibition in vivo at 10 mg/kg", "setting": "0.5 h, 10 mg/kg I.V., AII 0.05 mcg/kg IV, 30 min post dose", "value": 100, "unit": "%"},
      {"measurement": "inhibition in vivo at 10 mg/kg", "setting": "0.5 h, 10 mg/kg I.V., AII 0.1 mcg/kg IV, 30 min post dose", "value": 88, "unit": "%"},
      {"measurement": "inhibition in vivo at 10 mg/kg", "setting": "1 h, 10 mg/kg I.V., AII 0.01 mcg/kg IV (so in the source), 60 min post dose", "value": 86, "unit": "%"},
      {"measurement": "inhibition in vivo at 10 mg/kg", "setting": "1 h, 10 mg/kg I.V., AII 0.05 mcg/kg IV, 60 min post dose", "value": 97, "unit": "%"},
      {"measurement": "inhibition in vivo at 10 mg/kg", "setting": "2 h, 10 mg/kg I.V., AII 0.05 mcg/kg IV, 120 min post dose", "value": 86, "unit": "%"},
      {"measurement": "inhibition in vivo at 10 mg/kg", "setting": "2 h, 10 mg/kg I.V., AII dose not given, 120 min post dose", "value": 81, "unit": "%"},
      {"measurement": "inhibition in vivo at 10 mg/kg", "setting": "3 h, 10 mg/kg I.V., AII 0.05 mcg/kg IV, 180 min post dose", "value": 67, "unit": "%"},
      {"measurement": "inhibition in vivo at 10 mg/kg", "setting": "3 h, 10 mg/kg I.V., AII 0.1 mcg/kg IV, 180 min post dose", "value": 63, "unit": "%"},
      {"measurement": "inhibition in vivo at 10 mg/kg", "setting": "[…], 10 mg/kg I.V., AII 0.05 mcg/kg IV, 90 min post dose", "value": 87, "unit": "%"},
      {"measurement": "inhibition in vivo at 10 mg/kg", "setting": "[…], 10 mg/kg I.V., AII 0.1 mcg/kg IV, 90 min post dose", "value": 86, "unit": "%"},
      {"measurement": "inhibition in vivo at 5 mg/kg", "setting": "0.5 h, 5 mg/kg P.O., AII 0.05 mcg/kg IV, 30 min post dose", "value": 37, "unit": "%"},
      {"measurement": "inhibition in vivo at 5 mg/kg", "setting": "0.5 h, 5 mg/kg P.O., AII 0.1 mcg/kg IV, 30 min post dose", "value": 38, "unit": "%"},
      {"measurement": "inhibition in vivo at 5 mg/kg", "setting": "1 h, 5 mg/kg P.O., AII 0.05 mcg/kg IV, 60 min post dose", "value": 59, "unit": "%"},
      {"measurement": "inhibition in vivo at 5 mg/kg", "setting": "1 h, 5 mg/kg P.O., AII 0.1 mcg/kg IV, 60 min post dose", "value": 29, "unit": "%"},
      {"measurement": "inhibition in vivo at 5 mg/kg", "setting": "2 h, 5 mg/kg P.O., AII 0.05 mcg/kg IV, 120 min post dose", "value": 41, "unit": "%"},
      {"measurement": "inhibition in vivo at 5 mg/kg", "setting": "2 h, 5 mg/kg P.O., AII 0.1 mcg/kg IV, 120 min post dose", "value": 55, "unit": "%"},
      {"measurement": "inhibition in vivo at 5 mg/kg", "setting": "3 h, 5 mg/kg P.O., AII 0.05 mcg/kg IV, 180 min post dose", "value": 63, "unit": "%"},
      {"measurement": "inhibition in vivo at 5 mg/kg", "setting": "3 h, 5 mg/kg P.O., AII 0.1 mcg/kg IV, 180 min post dose", "value": 35, "unit": "%"},
      {"measurement": "inhibition in vivo at 5 mg/kg", "setting": "4 h, 5 mg/kg P.O., AII 0.05 mcg/kg IV, 240 min post dose", "value": 34, "unit": "%"},
      {"measurement": "inhibition in vivo at 5 mg/kg", "setting": "4 h, 5 mg/kg P.O., AII 0.1 mcg/kg IV, 240 min post dose", "value": 36, "unit": "%"},
      {"measurement": "inhibition in vivo at 5 mg/kg", "setting": "[…], 5 mg/kg P.O., AII 0.05 mcg/kg IV, 90 min post dose", "value": 56, "unit": "%"},
      {"measurement": "inhibition in vivo at 5 mg/kg", "setting": "[…], 5 mg/kg P.O., AII 0.1 mcg/kg IV, 90 min post dose", "value": 59, "unit": "%"},
      {"measurement": "Average Change", "setting": "5 mg/kg P.O., AII 0.05 mcg/kg IV, 30 min post dose", "value": 21.5, "unit": "mmHg"},
      {"measurement": "Average Change", "setting": "5 mg/kg P.O., AII 0.05 mcg/kg IV, 60 min post dose", "value": 14, "unit": "mmHg"},
      {"measurement": "Average Change", "setting": "[1]", "value": 15, "unit": "mmHg"},
      {"measurement": "Average Change", "setting": "5 mg/kg P.O., AII 0.05 mcg/kg IV, 120 min post dose", "value": 20, "unit": "mmHg"},
      {"measurement": "Average Change", "setting": "5 mg/kg P.O., AII 0.05 mcg/kg IV, 180 min post dose", "value": 12.5, "unit": "mmHg"},
      {"measurement": "Average Change", "setting": "5 mg/kg P.O., AII 0.05 mcg/kg IV, 240 min post dose", "value": 22.5, "unit": "mmHg"},
      {"measurement": "Average Change", "setting": "5 mg/kg P.O., AII 0.1 mcg/kg IV, 30 min post dose", "value": 26.5, "unit": "mmHg"},
      {"measurement": "Average Change", "setting": "5 mg/kg P.O., AII 0.1 mcg/kg IV, 60 min post dose", "value": 30, "unit": "mmHg"},
      {"measurement": "Average Change", "setting": "5 mg/kg P.O., AII 0.1 mcg/kg IV, 90 min post dose", "value": 17.5, "unit": "mmHg"},
      {"measurement": "Average Change", "setting": "5 mg/kg P.O., AII 0.1 mcg/kg IV, 120 min post dose", "value": 19, "unit": "mmHg"},
      {"measurement": "Average Change", "setting": "5 mg/kg P.O., AII 0.1 mcg/kg IV, 180 min post dose", "value": 27.5, "unit": "mmHg"},
      {"measurement": "Average Change", "setting": "5 mg/kg P.O., AII 0.1 mcg/kg IV, 240 min post dose", "value": 27, "unit": "mmHg"},
      {"measurement": "Average Change", "setting": "10 mg/kg I.V., AII 0.01 mcg/kg IV (so in the source), 60 min post dose", "value": 7.5, "unit": "mmHg"},
      {"measurement": "Average Change", "setting": "[2]", "value": 0, "unit": "mmHg"},
      {"measurement": "Average Change", "setting": "10 mg/kg I.V., AII 0.05 mcg/kg IV, 60 min post dose", "value": 1, "unit": "mmHg"},
      {"measurement": "Average Change", "setting": "[3]", "value": 5, "unit": "mmHg"},
      {"measurement": "Average Change", "setting": "10 mg/kg I.V., AII 0.05 mcg/kg IV, 120 min post dose", "value": 5.5, "unit": "mmHg"},
      {"measurement": "Average Change", "setting": "10 mg/kg I.V., AII 0.05 mcg/kg IV, 180 min post dose", "value": 12.5, "unit": "mmHg"},
      {"measurement": "Average Change", "setting": "10 mg/kg I.V., AII 0.1 mcg/kg IV, 30 min post dose", "value": 6.5, "unit": "mmHg"},
      {"measurement": "Average Change", "setting": "10 mg/kg I.V., AII 0.1 mcg/kg IV, 90 min post dose", "value": 7.5, "unit": "mmHg"},
      {"measurement": "Average Change", "setting": "[4]", "value": 20, "unit": "mmHg"},
      {"measurement": "Average Change", "setting": "[5]", "value": 10, "unit": "mmHg"},
      {"measurement": "Change", "setting": "[1]", "value": 15, "unit": "mmHg"},
      {"measurement": "Change", "setting": "[2]", "value": 0, "unit": "mmHg"},
      {"measurement": "Change", "setting": "[3]", "value": 5, "unit": "mmHg"},
      {"measurement": "Change", "setting": "[4]", "value": 20, "unit": "mmHg"},
      {"measurement": "Change", "setting": "[5]", "value": 10, "unit": "mmHg"}
    ]}
  ]
}
